What was measured:
[1] = Solubility in water; assay type: physicochemical; conditions: saturated solution in water
Description: Solubility was determined by dissolving the test compound in the minimum amount of water to produce a saturated solution.

[2] = system: K562 cells; test: K562 cell line Alamar Blue assay; assay type: cell-based, human; conditions: 96 hours
Description: K562 Cell Line (Alamar Blue Assay)
The compounds to be tested were dissolved in 100% Biotech grade DMSO (Sigma) and subsequently diluted to stock concentrations of either 2 μM or 200 nM in 2% DMSO. 100 μl of the stock concentrations were serially diluted 1 in 3 in 2% DMSO in intermediate polystyrene 96 well cell culture plates (Nunc). 2% DMSO was placed in the outer columns for use as blanks, and in the 2nd or 11th column (depending on whether the top or bottom of an assay plate was to be used) for use as a control. The entire row of the intermediate plate was then transferred in triplicate to either rows B to D or E to G of a fluorescence compatible polystyrene 96 well cell culture plate (Greiner BioOne); 10 μl to each well. A cell solution containing 5×10^4 cells/ml was made up in phenol red free RPMI 1640 (Sigma) supplemented with 10% foetal calf serum (Sigma) and 20 mM L-glutamine (Sigma). 190 μl cell solution was added to each well of the assay plate, from columns 2 to 11. 190 μl culture media was added to columns 1 and 12. Plates were incubated for 96 hours at 37° C. in 5% CO2. 1 μM (final) rezasurin (converted to fluorescent resofurin by viable cells) was added to each well and the plates incubated for a further 4 hours. Fluorescence was read at 530-570 nm excitation, 580-620 nm emission using an Envision plate reader (Applied Biosystems). Data was then analysed by Graphpad PRISM, and an IC50 obtained (defined as the compound concentration needed to reduce the cell population by half).

[3] = system: Closed-circular puc18 DNA linearized with HindIII; test: DNA cross-linking (agarose gel); assay type: biochemical; conditions: amount required to cross-link 50% of the DNA (XL50), 37° C., pH 7.2
Description: Closed-circular puc18 DNA was linearized with HindIII, then dephosphorylated, and finally 5′ end labeled with [y32P]-ATP using polynucleotide kinase. Reactions containing 10 ng of DNA and drug were carried out in aqueous 1×TEOA (25 mM triethanolamine, 1 mM EDTA, pH 7.2) buffer at a final volume of 50 μL at 37° C. Reactions were terminated by addition of an equal volume of stop solution (0.6 M NaOAc, 20 mM EDTA, 100 μg/mL tRNA) followed by precipitation with ethanol. Following centrifugation of the samples, the supernatants were discarded and the pellets were dried by lyophilization. […]
Electrophoresis was performed on a 0.8% submerged horizontal agarose gel, 20 cm in length for 16 hours at 38-40 V in 1×TAE running buffer (2.42 g Tris Base, 0.372 g EDTA, 0.571 ml glacial acetic acid). […] The film bands were quantitated using a BioRad GS-670 imaging laser densitometer. The percentage of cross-linking was calculated by measuring the total DNA in each lane (the sum of the densities for the double-stranded and single-stranded bands) relative to the amount of density of double-stranded band alone. A dose response curve was derived by plotting drug concentration against the determined percentage level of cross-linked DNA, from which was derived the amount required to cross-link 50% of the DNA (XL50).

[4] = system: LOX IMVI (human melanomas); test: Anti tumour activity, LOX IMVI xenograft in nude mice; assay type: in vivo
Description: LOX IMVI (human melanomas) were grown subcutaneously in nude mice (B&K Universal, Hull, UK). Tumours were transplanted as single tumour fragments in the flank by trocar. Groups of 8 tumour-bearing mice were treated with ZC423 at the previously established single intravenous (iv) maximum tolerated dose (MTD) of 3 mgkg^−1 using 5% DMA/saline as the vehicle. Control mice (n=8) were treated with vehicle alone.
Treatment commenced when tumours could be reliably measured by calipers (mean dimensions 4×4 mm) and therapeutic effects were assessed by daily caliper measurements of the tumour and mouse weights. Tumour volumes were determined by the formula a^2×b/2 where a is the smaller and b is the larger diameter of the tumour. The results are shown in FIG. 1 as a graphs of relative tumour volume against time (▪ ZC423; ♦ Control—solvent alone).

[5] = Single intravenous maximum tolerated dose; assay type: in vivo, mice; conditions: previously established
[6] = system: LOXIMVI human melanoma cells; test: LOXIMVI cell line cytotoxicity (resazurin); assay type: cell-based; conditions: 96 hours, read-out: ZC-423 IC50
Description: (§1) LOXIMVI and OVCAR-5 Cell Lines
(§2) A cell solution containing 5×10^4 cells/ml of either LOXIMVI human melanoma cells or OVCAR-5 human ovarian tumour cells was made up in phenol red free RPMI 1640 (Sigma) supplemented with 10% foetal calf serum (Sigma) and 20 mM L-glutamine (Sigma). 190 μl cell solution was added to each well of a fluorescence compatible polystyrene 96 well cell culture plate (Greiner BioOne), from columns 2 to 11. 190 μl culture media was added to columns 1 and 12. Plates were incubated overnight at 37° C. in 5% CO2. Compounds were dissolved in 100% Biotech grade DMSO (Sigma) and subsequently diluted to stock concentrations in 2% DMSO. 100 μl of the stock concentrations were serially diluted 1 in 3 in 2% DMSO in intermediate polystyrene 96 well cell culture plates (Nunc). 2% DMSO was placed in the outer columns for use as blanks, and in the 2nd or 11th column (depending on whether the top or bottom of an assay plate was to be used) for use as a control. The entire row of the intermediate plate was then transferred in triplicate, 10 μl per well, to either rows B to D or E to G of the cell plate. […] Fluorescence was read at 530-570 nm excitation, 580-620 nm emission using an Envision plate reader (Applied Biosystems). Data was then analysed by Graphpad PRISM, and an IC50 obtained (defined as the compound concentration needed to reduce the cell population by half).

[7] = system: K562 human chronic myeloid leukaemia cells; test: K562 cell line MTT assay, 96 hour exposure; assay type: cell-based; conditions: 96 hour incubation
Description: In a modification of the above method, 5×10^4 K562 cells (as above) were maintained in RPMI 1640 medium (Sigma) supplemented with 10% foetal calf serum (Sigma) and 20 mM L-glutamine (Sigma) and 190 μL of this solution incubated with specific doses of the drug (10 μL) for 96 hours at 37° C. in 5% CO2. 250 μg/ml (final) MTT was added to each well and the plates incubated for a further 4 hours. Absorbance was read at 450 nm using an Envision plate reader (Applied Biosystems). Data was then analysed by Graphpad PRISM, and an IC50 obtained (defined as the compound concentration needed to reduce the cell population by half).

[8] = system: OVCAR-5 human ovarian tumour cells; test: OVCAR-5 cell line cytotoxicity (resazurin); assay type: cell-based; conditions: 96 hours, read-out: ZC-423 IC50
Description: as §1, §2

[9] = system: K562 human chronic myeloid leukaemia cells; test: K562 cell line MTT assay, 1 hour exposure; assay type: cell-based; conditions: 1 hour incubation
Description: K562 Cell Line (MTT Assay)
K562 human chronic myeloid leukaemia cells were maintained in RPM1 1640 medium supplemented with 10% fetal calf serum and 2 mM glutamine at 37° C. in a humidified atmosphere containing 5% CO2 and were incubated with a specified dose of drug for 1 hour at 37° C. in the dark. The incubation was terminated by centrifugation (5 min, 300 g) and the cells were washed once with drug-free medium. Following the appropriate drug treatment, the cells were transferred to 96-well microtiter plates (10^4 cells per well, 8 wells per sample). Plates were then kept in the dark at 37° C. in a humidified atmosphere containing 5% CO2. The assay is based on the ability of viable cells to reduce a yellow soluble tetrazolium salt, 3-(4,5-dimethylthiazol-2-yl)-2,5-diphenyl-2H-tetrazolium bromide (MTT, Aldrich-Sigma), to an insoluble purple formazan precipitate. Following incubation of the plates for 4 days (to allow control cells to increase in number by approximately 10 fold), 20 μL of MTT solution (5 mg/mL in phosphate-buffered saline) was added to each well and the plates further incubated for 5 h. The plates were then centrifuged for 5 min at 300 g and the bulk of the medium pipetted from the cell pellet leaving 10-20 μL per well. […] The optical density was then read at a wavelength of 550 nm on a Titertek Multiscan ELISA plate reader, and a dose-response curve was constructed. […]

COc1cc2c(cc1OCCCOc1cc3c(cc1OC)C(=O)N1C=C(c4ccc(F)cc4)C[C@H]1C(S(=O)(=O)[O-])N3)NC(S(=O)(=O)[O-])[C@@H]1CC(c3ccc(F)cc3)=CN1C2=O.[Na+].[Na+] (stereo partly drawn) [Compound 33, 1,1′-[[(Propane-1,3-diyl)dioxy]bis[(11aS)-11-sulpho-7-methoxy-2-(4-fluorobenzene)-1, 10,11,11a-tetrahydro-5H-pyrrolo[2,1-c][1,4]benzodiazepin-5-one]] sodium salt]
Amount of compound (g) in 1 L water [1]: 3 g in 1 L water
IC50 [2]: < 1 nM

COc1cc2c(cc1OCCCOc1cc3c(cc1OC)C(=O)N1C=C(c4ccc(F)cc4)C[C@H]1C=N3)N=C[C@@H]1CC(c3ccc(F)cc3)=CN1C2=O [Compound 32, 1,1′-[[(Propane-1,3-diyl)dioxy]bis[(11aS)-7-methoxy-2-(4-fluorobenzene)-1,11a-dihydro-5H-pyrrolo[2,1-c][1,4]benzodiazepine-5-one]]]
IC50 ([2]; Homo sapiens): < 1 nM

COc1cc2c(cc1OCCCOc1cc3c(cc1OC)C(=O)N1C=C(c4cccs4)C[C@H]1C=N3)N=C[C@@H]1CC(c3cccs3)=CN1C2=O [Compound 21]
IC50 [3]: 500 nM

COc1cc2c(cc1OCCCOc1cc3c(cc1OC)C(=O)N1C=C(c4ccc5c(c4)OCO5)C[C@H]1C=N3)N=C[C@@H]1CC(c3ccc4c(c3)OCO4)=CN1C2=O [Compound 29]
IC50 ([2]; Homo sapiens): < 1 nM

COc1cc2c(cc1OCCCOc1cc3c(cc1OC)C(=O)N1C=C(c4ccc5ccccc5c4)C[C@H]1C=N3)N=C[C@@H]1CC(c3ccc4ccccc4c3)=CN1C2=O [Compound 18]
IC50 [3]: 200 nM

1,1′[[(Propane-1,5-diyl)dioxy]bis[(11aS)-11-sulpho-7-methoxy-2-(4-methoxyphenyl)-1,10,11,11a-tetrahydro-5H-pyrrolo[2,1-c][1,4]benzodiazepin-5-one]] sodium salt [ZC-423]
activity (relative tumour volume vs control), Mann-Whitney analysis ([4]; single iv 3 mgkg^−1, FIG. 1): statistically significant
tumour free animals ([4]; single iv 3 mgkg^−1, at 68 days, FIG. 2): all animals were tumour free
single intravenous (iv) maximum tolerated dose (MTD) [5]: 3 mgkg^−1
IC50 [6]: 4.83 nM
IC50 [7]: 1.5 nM
IC50 [8]: 5.2 nM
Amount of compound (g) in 1 L water [1]: 11 g in 1 L water

COc1cccc(C2=CN3C(=O)c4cc(OC)c(OCCCOc5cc6c(cc5OC)C(=O)N5C=C(c7cccc(OC)c7)C[C@H]5C(S(=O)(=O)[O-])N6)cc4NC(S(=O)(=O)[O-])[C@@H]3C2)c1.[Na+].[Na+] (stereo partly drawn) [Compound 27, 1,1′-[[(Propane-1,3-diyl)dioxy]bis[(11aS)-11-sulpho-7-methoxy-2-(3-methoxybenzene)-1, 10,11,11a-tetrahydro-5H-pyrrolo[2,1-c][1,4]benzodiazepin-5-one]] sodium salt]
Amount of compound (g) in 1 L water [1]: 9 g in 1 L water
IC50 [2]: < 1 nM

COc1cccc(C2=CN3C(=O)c4cc(OC)c(OCCCOc5cc6c(cc5OC)C(=O)N5C=C(c7cccc(OC)c7)C[C@H]5C=N6)cc4N=C[C@@H]3C2)c1 [Compound 26, 1,1′-[[(Propane-1,3-diyl)dioxy]bis[(11aS)-7-methoxy-2-(3-methoxybenzene)-1,11a-dihydro-5H-pyrrolo[2,1-c][1,4]benzodiazepine-5-one]]]
IC50 ([2]; Homo sapiens): < 1 nM

COc1ccc(C2=CN3C(=O)c4cc(OC)c(OCCCOc5cc6c(cc5OC)C(=O)N5C=C(c7ccc(OC)cc7)C[C@H]5C=N6)cc4N=C[C@@H]3C2)cc1 [ZC-207, 1,1′-[[(Propane-1,3-diyl)dioxy]bis[(11aS)-7-methoxy-2-(p-methoxybenzene)-1,11a-dihydro-5H-pyrrolo[2,1-c][1,4]benzodiazepine-5-one]]]
IC50 [9]: 5.3 nM
Amount of compound (g) in 1 L water [1]: Insoluble
